Measurements as given in patent US6797255B1, “Methods and compositions for enhancing magnetic resonance imaging” (Mallinckrodt Inc., priority 1985, dated 2004).

How the values were obtained:
rabbit = test: Tissue T1 and T2 relaxation times 5 min, 15 min or 1 week after 0.05 mmol/kg intravenous dose; type: in vivo; details: 0.05 mmol/kg i.v.
Procedure: (§1) All experiments employing the complex dihydrogen bis(N-[N′-(2,6-dimethylphenyl)carbamoylmethyl]iminodiaceto)manganese (II) trihydrate were conducted following intravenous administration to rabbits. A 10 mM solution of the complex was used in these studies. Rabbits were anesthetized with ketamine/xylazine prior to treatment. The results given were obtained with a 10 mHz RADX proton spin analyzer.
In another study, employing an intravenous dose of 0.05 mmol of the complex/Kg, one rabbit was killed at time points of 5 min, 15 min or 1 week after dosing. In animals killed at 5 and 15 min, heart and liver T1 and T2 relaxation times were determined with 5 and 10 mHz instruments.

[1] = Solubility of the complex in water; type: physicochemical
Procedure: The complex, dihydrogen bis(N-[N′-(2,6-diisopropylphenyl)carbamoylmethyl]iminodiaceto)manganese(II) hydrate, was thus isolated as the hydrated species. The solubility of the complex in water was determined to be approximately 0.1% w/v. The relaxation parameters T1 and T2 of a 10-^−3M solution of the complex in a 90 MHz NMR experiment were determined to be 0.107 sec. and 0.007 sec. respectively. The T1 and T2 values for water are 2.51 sec. and 0.150 sec., respectively.
The relaxation parameters T1 and T2 of a 10^−3M solution of the complex in a 90 MHz NMR experiment were determined to be 126 milliseconds and 1.5 milliseconds, respectively.

Swiss CF-1 mice = test: Acute intravenous toxicity determination; type: in vivo; details: for LD50: acute, intravenous, Trihydrate
Procedure: Dihydrogen Bis(N-[N′-(2,6-dimethylphenyl)carbamoylmethyl]iminidiaceto)manganese(II) trihydrate was dissolved in 0.9% sodium chloride Inj. USP as a 1.25% solution.
Male and female Swiss CF-1 mice with a body weight range of 17.4 to 24.2 grams were used. The mice were housed according to standard procedures and individually marked with picric acid.
The dose schedule was as follows:
Measured single doses were injected into the lateral tail vein at a rate of 1 ml/min. The animals were observed immediately after dosing and during the 7-day observation period for pharmacotoxic reactions. Recording of terminal body weights and general necropsy-of the thoracic and abdominal organs was performed after 7 days.

rabbits = test: Tissue T1 and T2 relaxation times 45 min after intravenous injection (time course); type: in vivo; details: for T1 relaxation time / T2 relaxation time: 45 min after 0.03 mmol/kg i.v., 10 mHz RADX
Procedure: as §1
A second study was performed in two rabbits killed 45 min after intravenous injection of 0.03 mmol of the complex/Kg to examine the time course of T1 and T2relaxation enhancement.

Cc1cccc(C)c1NC(=O)CN(CC(=O)[O-])CC(=O)O.Cc1cccc(C)c1NC(=O)CN(CC(=O)[O-])CC(=O)O.O.O.O.[Mn+2] [Example 2]
heart and liver T1 values (rabbit; killed at 5 and 15 min, 5 and 10 mHz instruments): reduced tissue T1 values at both frequencies | tissue T1 and T2 relaxation times (rabbit; rabbit killed at 1 week): returned to control values | solubility of the complex in water [1]: 2.5 % w/v | solubility of the complex in water (molar) [1]: approximately 3.6×10^−3 M | Body weight change (Swiss CF-1 mice; 0.360 mmol/kg i.v., after 7 days): +1.75 g | Mortalities/number tested (Swiss CF-1 mice; 0.360 mmol/kg i.v., day 1 after dosing): 0/4 | Mortalities/number tested (Swiss CF-1 mice; 0.360 mmol/kg i.v., day 2 after dosing): 0/4 | Mortalities/number tested (Swiss CF-1 mice; 0.360 mmol/kg i.v., day 3 after dosing): 0/4 | Mortalities/number tested (Swiss CF-1 mice; 0.360 mmol/kg i.v., day 4 after dosing): 0/4 | Mortalities/number tested (Swiss CF-1 mice; 0.360 mmol/kg i.v., day 5 after dosing): 0/4 | Mortalities/number tested (Swiss CF-1 mice; 0.360 mmol/kg i.v., day 6 after dosing): 0/4 | Mortalities/number tested (Swiss CF-1 mice; 0.360 mmol/kg i.v., day 7 after dosing): 0/4 | Mortalities/number tested (Swiss CF-1 mice; 0.360 mmol/kg i.v., immediate): 0/4 | Body weight change (Swiss CF-1 mice; 0.540 mmol/kg i.v., after 7 days): +2.0 g | Mortalities/number tested (Swiss CF-1 mice; 0.540 mmol/kg i.v., day 1 after dosing): 2/4 | Mortalities/number tested (Swiss CF-1 mice; 0.540 mmol/kg i.v., day 2 after dosing): 2/4 | Mortalities/number tested (Swiss CF-1 mice; 0.540 mmol/kg i.v., day 3 after dosing): 2/4 | Mortalities/number tested (Swiss CF-1 mice; 0.540 mmol/kg i.v., day 4 after dosing): 2/4 | Mortalities/number tested (Swiss CF-1 mice; 0.540 mmol/kg i.v., day 5 after dosing): 2/4 | Mortalities/number tested (Swiss CF-1 mice; 0.540 mmol/kg i.v., day 6 after dosing): 2/4 | Mortalities/number tested (Swiss CF-1 mice; 0.540 mmol/kg i.v., day 7 after dosing): 2/4 | Mortalities/number tested (Swiss CF-1 mice; 0.540 mmol/kg i.v., immediate): 2/4 | Body weight change (Swiss CF-1 mice; 0.630 mmol/kg i.v., after 7 days): +1.6 g | Mortalities/number tested (Swiss CF-1 mice; 0.630 mmol/kg i.v., day 1 after dosing): 3/4 | Mortalities/number tested (Swiss CF-1 mice; 0.630 mmol/kg i.v., day 2 after dosing): 3/4 | Mortalities/number tested (Swiss CF-1 mice; 0.630 mmol/kg i.v., day 3 after dosing): 3/4 | Mortalities/number tested (Swiss CF-1 mice; 0.630 mmol/kg i.v., day 4 after dosing): 3/4 | Mortalities/number tested (Swiss CF-1 mice; 0.630 mmol/kg i.v., day 5 after dosing): 3/4 | Mortalities/number tested (Swiss CF-1 mice; 0.630 mmol/kg i.v., day 6 after dosing): 3/4 | Mortalities/number tested (Swiss CF-1 mice; 0.630 mmol/kg i.v., day 7 after dosing): 3/4 | Mortalities/number tested (Swiss CF-1 mice; 0.630 mmol/kg i.v., immediate): 3/4 | pharmacotoxic reactions immediately after injection (Swiss CF-1 mice; 0.360-0.630 mmol/kg i.v., mice): Mild to severe convulsions occurred in all the animals immediately after injections | pharmacotoxic reactions of surviving animals (Swiss CF-1 mice; 0.360-0.630 mmol/kg i.v., mice): mild to severe depression which was resolved within one hour after dosing | weight gains (Swiss CF-1 mice; 7-day observation): normal | LD50 (Swiss CF-1 mice; mouse, listed as dihydrogen bis(N-[N′-(2,6-dimethylphenyl)carbamoylmethyl]-iminodiaceto)manganese): ~0.5 mmol/kg | LD50 (Swiss CF-1 mice; mouse, listed as dihydrogen bis(N-[N′-(2,6-dimethylphenyl)carbamoylmethyl]iminodiaceto)-manganese): approximately 0.540 mmol/kg | necropsy findings (Swiss CF-1 mice; after 7 days): did not reveal any abnormalities | diagnostic safety ratio (Swiss CF-1 mice; mouse i.v. LD50 vs ED50 for hepatic T1 enhancement): approximately 50 | intravenous toxicity profile (Swiss CF-1 mice; mouse, in vivo, iv): favorable intravenous toxicity profile | tissue T1 relaxation times at 45 min compared with 15 min (rabbits; 0.03 mmol/kg i.v.): decreased to the same extent as noted at 15 min | T1 relaxation time (rabbits; Bladder): 367 ms | T2 relaxation time (rabbits; Bladder): 72 ms | T1 relaxation time (rabbits; Fat): 137 ms | T2 relaxation time (rabbits; Fat): 125 ms | T1 relaxation time (rabbits; Heart): 265 ms | T2 relaxation time (rabbits; Heart): 57 ms | T1 relaxation time (rabbits; Large Intestine): 154 ms | T2 relaxation time (rabbits; Large Intestine): 47 ms | T1 relaxation time (rabbits; Liver): 37 ms | T2 relaxation time (rabbits; Liver): 24 ms | T1 relaxation time (rabbits; Lung): 438 ms | T2 relaxation time (rabbits; Lung): 89 ms | T1 relaxation time (rabbits; Pancreas): 117 ms | T2 relaxation time (rabbits; Pancreas): 75 ms | T1 relaxation time (rabbits; Renal cortex): 143 ms | T2 relaxation time (rabbits; Renal cortex): 57 ms | T1 relaxation time (rabbits; Renal medulla): 244 ms | T2 relaxation time (rabbits; Renal medulla): 91 ms | T1 relaxation time (rabbits; Skeletal muscle): 315 ms | T2 relaxation time (rabbits; Skeletal muscle): 41 ms | T1 relaxation time (rabbits; Small Intestine): 129 ms | T2 relaxation time (rabbits; Small Intestine): 48 ms | T1 relaxation time (rabbits; Spleen): 271 ms | T2 relaxation time (rabbits; Spleen): 71 ms | T1 relaxation time (rabbits; Stomach): 159 ms | T2 relaxation time (rabbits; Stomach): 47 ms
